Reference: patent US20250026787A1, “PEPTIDES AND METHODS FOR REDUCING SKIN PIGMENTATION” (Glo Pharma, Inc., priority 2021, published 2025)
Where two headings read alike, the source gives them in different places. Square brackets hold non-standard residues; d marks the D form. Peptide text beside a SMILES is read from it.

Target: T1, Human recombinant melanocortin MCI receptors (Homo sapiens, UniProt Q01726)
T1 construct: purchased Eurofins Discovery Item 251100; host or cells: CHO-K1
Assay: MC1 Human Melanocortin GPCR Binding (Agonist Radioligand) competition assay (Eurofins Item 251100)
Procedure: The binding of Group A MCIR peptide antagonists of the disclosure was evaluated in a competition assay (MC1 Human Melanocortin GPCR Binding (Agonist Radioligand) Assay, Item 251100, Eurofins Discovery). […] Human recombinant melanocortin MCI receptors were expressed in CHO-K1 cells in modified HEPES-KOH buffer pH 7.0. […] Non-specific binding was estimated in the presence of 1 μM NDP-α-MSH. Receptors were filtered and washed, and the filters counted to determine [^125I] NDP-α-MSH specifically bound. Peptide antagonists of the disclosure having amino acid sequences as set forth in SEQ ID NOS: 11, 16, 25, 27, 32, 35, and 40 (each having a C-terminal —NH2) were screened at five concentrations, as well as a positive control, SEQ ID NO: 1 (Melanostatine-5). Inhibition curves were obtained by determining the reduction of bound α-MSH in the presence of an amount of, and/or by increasing amounts of, each peptide antagonist. Non-specific binding of peptide was estimated separately in the presence of a vast excess (1 mM) of unlabeled α-MSH, which occupies all the available receptor binding sites. Based on the competitive binding curve, the IC50 values were determined (Eurofins or AAT Bioquest IC50 calculator). […] The binding of Group A MCIR peptide antagonists of the disclosure was evaluated in a competition assay (MC1 Human Melanocortin GPCR Binding (Agonist Radioligand) Assay, Item 251100, Eurofins Discovery). […] Human recombinant melanocortin MCI receptors were expressed in CHO-K1 cells in modified HEPES-KOH buffer pH 7.0. […] Non-specific binding was estimated in the presence of 1 μM NDP-α-MSH. Receptors were filtered and washed, and the filters counted to determine [^125I]NDP-α-MSH specifically bound. Peptide antagonists of the disclosure having amino acid sequences as set forth in SEQ ID NOS: 11, 16, 25, 27, 32, 35, and 40 were screened at five concentrations. Inhibition curves were obtained by determining the reduction of bound α-MSH in the presence of an amount of, and/or by increasing amounts of, each peptide antagonist. […] Based on the percent inhibition relative to the agonist the IC50 values were determined (Eurofins or AAT Bioquest IC50 calculator).

[1] = Example 7, Table 7, binned, screened at five concentrations, read-out: IC50
[2] = stated as 'in some embodiments', broadest range, read-out: IC50 value using a competition assay

T1 sequence (Q01726 whole entry): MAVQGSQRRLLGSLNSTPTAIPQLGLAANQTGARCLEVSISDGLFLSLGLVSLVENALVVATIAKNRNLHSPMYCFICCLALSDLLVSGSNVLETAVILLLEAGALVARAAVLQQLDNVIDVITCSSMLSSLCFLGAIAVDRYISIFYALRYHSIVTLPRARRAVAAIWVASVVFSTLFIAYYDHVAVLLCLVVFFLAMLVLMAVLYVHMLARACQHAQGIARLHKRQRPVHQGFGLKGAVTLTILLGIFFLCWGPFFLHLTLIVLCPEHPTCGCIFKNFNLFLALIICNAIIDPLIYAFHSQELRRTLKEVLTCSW

Structure (SMILES)	IC50 [1]	other results
CSCC[C@H](N)C(=O)N1CCC[C@H]1C(=O)N[C@H](Cc1ccccc1)C(=O)N[C@@H](CCCNC(=N)N)C(=O)N[C@H](Cc1c[nH]c2ccccc12)C(=O)N[C@@H](Cc1ccccc1)C(=O)N[C@@H](CCCCN)C(=O)N1CCC[C@H]1C(=O)N[C@H](C(N)=O)C(C)C [SEQ ID NO: 1, Met-Pro-D-Phe-Arg-D-Trp-Phe-Lys-Pro-Val, reference compound] (H-MP[dF]R[dW]FKPV-NH2)		IC50 (IC50, Example 7, Table 7, binned, screened at five concentrations): < 200 nM; IC50 (IC50 value, Example 1, competition with 0.04 nM [125I]NDP-α-MSH, 120 minutes at 37° C): 120 nM
CC(C)[C@H](NC(=O)[C@@H]1CCCN1C(=O)[C@H](CCCCN)NC(=O)[C@H](Cc1ccccc1)NC(=O)[C@@H](Cc1c[nH]c2ccccc12)NC(=O)[C@H](CCCNC(=N)N)NC(=O)[C@@H](Cc1ccccc1)NC(=O)[C@@H](NC(=O)[C@@H](N)Cc1ccccc1)C(C)C)C(N)=O [SEQ ID NO: 16, Phe-Val-dPhe-Arg-dTrp-Phe-Lys-Pro-Val-NH2] (H-FV[dF]R[dW]FKPV-NH2)	< 200 nM	IC50 [2]: 70 to 160 nM
CC(C)[C@H](NC(=O)[C@@H]1CCCN1C(=O)[C@H](CCCCN)NC(=O)[C@H](Cc1ccccc1)NC(=O)[C@@H](Cc1c[nH]c2ccccc12)NC(=O)[C@H](CCCNC(=N)N)NC(=O)[C@@H](Cc1ccccc1)NC(=O)[C@@H](NC(=O)[C@@H](N)CCC(=O)O)C(C)C)C(N)=O [SEQ ID NO: 25, Glu-Val-dPhe-Arg-dTrp-Phe-Lys-Pro-Val-NH2] (H-EV[dF]R[dW]FKPV-NH2)	> 500 nM	
CC[C@H](C)[C@H](N)C(=O)N[C@@H](Cc1ccccc1)C(=O)N[C@@H](CCCNC(=N)N)C(=O)N[C@H](Cc1c[nH]c2ccccc12)C(=O)N[C@@H](Cc1ccccc1)C(=O)N[C@@H](CCCCN)C(=O)N1CCC[C@H]1C(=O)N[C@H](C(N)=O)C(C)C [SEQ ID NO: 32, Ile-Phe-Arg-dTrp-Phe-Lys-Pro-Val-NH2] (H-IFR[dW]FKPV-NH2)	< 200 nM	IC50 [2]: 70 to 160 nM

Second part, led by results:

IC50 [1]	Structure (SMILES)	other results
200 to 500 nM	CC(C)[C@H](NC(=O)[C@@H]1CCCN1C(=O)[C@H](CCCCN)NC(=O)[C@H](Cc1ccccc1)NC(=O)[C@@H](Cc1c[nH]c2ccccc12)NC(=O)[C@H](CCCNC(=N)N)NC(=O)[C@@H](Cc1ccccc1)NC(=O)[C@@H](NC(=O)[C@H](C)N)C(C)C)C(N)=O [SEQ ID NO: 11, Ala-Val-dPhe-Arg-dTrp-Phe-Lys-Pro-Val-NH2] (H-AV[dF]R[dW]FKPV-NH2)	
> 500 nM	CSCC[C@H](N)C(=O)N[C@H](C(=O)N[C@@H](Cc1ccccc1)C(=O)N[C@@H](CCCNC(=N)N)C(=O)N[C@H](Cc1c[nH]c2ccccc12)C(=O)N[C@@H](Cc1ccccc1)C(=O)N[C@@H](CCCCN)C(=O)N1CCC[C@H]1C(=O)N[C@H](C(N)=O)C(C)C)C(C)C [SEQ ID NO: 27, Met-Val-Phe-Arg-dTrp-Phe-Lys-Pro-Val-NH2] (H-MVFR[dW]FKPV-NH2)	
> 500 nM	CSCC[C@H](N)C(=O)N[C@H](C(=O)N[C@H](Cc1ccccc1)C(=O)N[C@H](CCCNC(=N)N)C(=O)N[C@H](Cc1c[nH]c2ccccc12)C(=O)N[C@@H](Cc1ccccc1)C(=O)N[C@@H](CCCCN)C(=O)N1CCC[C@H]1C(=O)N[C@H](C(N)=O)C(C)C)C(C)C [SEQ ID NO: 35, Met-Val-dPhe-dArg-dTrp-Phe-Lys-Pro-Val-NH2] (H-MV[dF][dR][dW]FKPV-NH2)	
> 500 nM	CC(C)C[C@@H](NC(=O)[C@H](C)N)C(=O)N[C@H](Cc1ccccc1)C(=O)N[C@@H](CCCNC(=N)N)C(=O)N[C@H](Cc1c[nH]c2ccccc12)C(=O)N[C@@H](Cc1ccccc1)C(=O)N[C@@H](CCCCN)C(=O)N1CCC[C@H]1C(=O)N[C@H](C(N)=O)C(C)C [SEQ ID NO: 40, Ala-dLeu-dPhe-Arg-dTrp-Phe-Lys-Pro-Val-NH2] (H-A[dL][dF]R[dW]FKPV-NH2)	
